# Experimental data from US8580773B2, “Small-molecule inhibitors of the androgen receptor” (The Regents of the University of California, priority 2008, dated 2013).
# Substitutions are numbered along the chain they refer to. “Also recorded” adds a separate entry of the source. Structures can show the parent of a compound that is named as a salt.
# What was measured:
# prostate [1] = experiment: Prostate weight in mice after four weeks of treatment; assay type: in vivo; details: male mice, 5 times per week for four weeks; BiC 100 mg/kg PO, PP 1 mg/kg IP, or the combination
# Method: Animals were treated 5 times per week for four weeks. At the end of the study period, animals were sacrificed and prostate tissue weighed. After weighing, the tissue was divided in half for pathological and genetic studies. […] (FIG. 7).
# human androgen receptor = target: T1, human androgen receptor (Homo sapiens, UniProt P10275); experiment: Screen of 1040 FDA-approved drugs and natural products for AR antagonists (MMTV-luciferase transcription assay and C-AR-Y FRET conformation assays); assay type: cell-based; details: test compounds at 10 μM, 10 nM DHT, 24 hours; validated by dose-response
# T1 construct: expressed in transfected cells; host or cells: HEK293 and LAPC4 stably expressing C-AR-Y; HEK293 transiently transfected with native AR
# T1 sequence (P10275 1-920): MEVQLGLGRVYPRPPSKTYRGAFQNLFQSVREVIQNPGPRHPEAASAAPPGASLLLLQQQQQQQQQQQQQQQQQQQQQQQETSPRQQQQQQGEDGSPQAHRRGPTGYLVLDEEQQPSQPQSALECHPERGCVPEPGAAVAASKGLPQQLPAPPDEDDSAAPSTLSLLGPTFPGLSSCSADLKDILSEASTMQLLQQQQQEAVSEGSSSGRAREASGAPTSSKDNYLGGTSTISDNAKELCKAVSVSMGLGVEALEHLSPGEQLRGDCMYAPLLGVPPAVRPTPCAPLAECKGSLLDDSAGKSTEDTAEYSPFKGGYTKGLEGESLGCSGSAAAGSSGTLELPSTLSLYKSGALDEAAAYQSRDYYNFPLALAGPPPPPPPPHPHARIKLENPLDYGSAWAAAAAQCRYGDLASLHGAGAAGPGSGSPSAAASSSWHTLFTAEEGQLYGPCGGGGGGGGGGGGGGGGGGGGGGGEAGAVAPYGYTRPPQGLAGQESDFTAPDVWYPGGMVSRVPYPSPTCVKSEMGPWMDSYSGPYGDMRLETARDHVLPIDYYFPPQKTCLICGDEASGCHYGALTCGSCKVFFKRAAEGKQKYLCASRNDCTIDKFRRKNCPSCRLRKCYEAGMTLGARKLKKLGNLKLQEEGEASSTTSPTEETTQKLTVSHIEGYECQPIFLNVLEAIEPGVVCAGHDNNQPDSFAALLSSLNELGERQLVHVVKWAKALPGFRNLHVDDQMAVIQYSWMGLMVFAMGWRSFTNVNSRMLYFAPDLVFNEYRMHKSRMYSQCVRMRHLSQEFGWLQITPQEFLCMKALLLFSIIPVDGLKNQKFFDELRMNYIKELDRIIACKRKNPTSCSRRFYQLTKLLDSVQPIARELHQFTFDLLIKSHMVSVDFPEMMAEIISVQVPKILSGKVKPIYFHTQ
# Method: A library assembled by the NINDS was screened. The library consisted of 1040 FDA-approved drugs and natural products. A basic strategy to select and compare compounds from each of the primary screens was established (FIG. 1).
# The transcription assay was conducted by transfecting 10 cm plates of HEK293 cells with plasmids encoding MMTV-luciferase, SV40-renilla luciferase, and native AR. […] FRET is fluorescence resonance energy transfer between cyan and yellow fluorescent protein derivatives (CFP, YFP) that are fused to the amino and carboxyl termini of the human androgen receptor. When ligand activates the receptor, a conformational change takes place that brings the CFP and YFP into close proximity, thereby allowing FRET to occur. This spectroscopic change is detected using a fluorescence plate reader.
# For the transcription assay, transfected cells were pooled before being plated into 96-well dishes with the test compounds at 10 μM. […] Cell and compound transfers were accomplished with a liquid handling robot. Cells were cultured for 24 hours in the presence of 10 nM DHT and the test compounds. After 24 hours, cells were either lysed by freeze-thaw (transcription assay), or fixed in 4% paraformaldehyde for reading on the FPR (FRET assays). Each compound was tested in duplicate in the initial screen.
# The compounds were sorted on the basis of anti-androgen effects. […] This eliminated situations in which one test gave a strong response, and the replicate had none. […] For the FRET assays, toxic compounds were easily detected because of their effect on raw CFP and YFP signal, and compounds that reduced this signal below two standard deviations were eliminated.
# The top 50 compounds identified in each primary assay were then tested in the other two assays.
# AR = target: T2, AR (Homo sapiens, UniProt P10275, T878A); experiment: DHT titration against inhibitor, PSA-luciferase reporter in LNCaP cells (competitive vs non-competitive); assay type: cell-based; details: moderate dose of inhibitor, DHT titrated
# T2 construct: that each express endogenous AR; endogenous in cells; host or cells: LNCaP
# T2 sequence (P10275 whole entry T878A): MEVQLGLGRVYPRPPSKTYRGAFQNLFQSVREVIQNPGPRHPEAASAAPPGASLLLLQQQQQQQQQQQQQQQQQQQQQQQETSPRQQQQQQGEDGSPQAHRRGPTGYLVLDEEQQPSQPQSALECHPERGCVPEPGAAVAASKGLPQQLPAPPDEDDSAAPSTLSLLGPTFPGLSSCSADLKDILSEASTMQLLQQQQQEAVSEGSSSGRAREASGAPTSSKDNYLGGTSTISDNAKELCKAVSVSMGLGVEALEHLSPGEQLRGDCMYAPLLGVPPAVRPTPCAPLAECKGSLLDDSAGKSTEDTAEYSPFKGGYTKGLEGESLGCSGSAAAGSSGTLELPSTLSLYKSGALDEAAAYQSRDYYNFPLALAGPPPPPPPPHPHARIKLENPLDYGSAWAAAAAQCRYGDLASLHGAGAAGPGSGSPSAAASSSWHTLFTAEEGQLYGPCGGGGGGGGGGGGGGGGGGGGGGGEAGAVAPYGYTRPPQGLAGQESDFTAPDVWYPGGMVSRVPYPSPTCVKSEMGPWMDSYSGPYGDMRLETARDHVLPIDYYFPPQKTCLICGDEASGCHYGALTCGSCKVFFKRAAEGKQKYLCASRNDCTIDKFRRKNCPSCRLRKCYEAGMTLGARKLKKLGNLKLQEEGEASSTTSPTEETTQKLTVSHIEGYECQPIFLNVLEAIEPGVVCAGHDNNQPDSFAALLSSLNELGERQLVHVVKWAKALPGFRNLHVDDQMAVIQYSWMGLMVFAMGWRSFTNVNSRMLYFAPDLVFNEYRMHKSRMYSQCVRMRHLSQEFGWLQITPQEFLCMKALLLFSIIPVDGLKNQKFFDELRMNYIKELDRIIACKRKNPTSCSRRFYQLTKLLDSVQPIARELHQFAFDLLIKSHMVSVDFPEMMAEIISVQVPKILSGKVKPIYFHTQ
# HEK293 cells = experiment: Cell proliferation (DNA content, DAPI) in control HEK293 cells; assay type: cell-based; details: PP 100 nM, HH 100 nM, BiC 1 μM
# Source text: LN-AR cells were created by retroviral infection of a high-expressing AR vector into LNCaP cells, and proliferate independent of androgen in cell culture, unlike their parental line (Chen, C. D., et al., Molecular determinants of resistance to antiandrogen therapy. Nat Med, 2004. 10(1): p. 33-9). HEK293 cells were used as a control. Cells were transferred to charcoal-stripped media two days before they were split and plated in quadruplicate at a density of approximately 20,000 cells/well in 48-well plates. […] Media were changed every day, using a single preparation to ensure consistent compound concentrations. Proliferation was determined by measuring the DNA content of the cells in each well. Each day, the cells in four wells were fixed in 100% cold methanol, followed by staining for 5 min at RT with 0.2 ng/mL 4′,6-diamidino-2-phenylindole (DAPI) in PBS. The cells were washed once in PBS, then read on a fluorescence plate reader using 365/439 excitation/emission wavelengths. LAPC4 and LNCaP cells proliferated to a much greater degree in the presence of DHT, while LN-AR cells proliferated in the presence and absence of DHT.
# [2] = system: androgen-regulated genes in the prostate; experiment: Quantitative PCR of androgen-regulated genes in mouse prostate, normalized to RPL19; assay type: in vivo; details: mice
# Method: A cohort of mice were castrated as a positive control.
# For quantitative PCR, RNA was isolated from mouse prostates and reverse-transcribed. The expression of several androgen-regulated genes, of which a subset is shown (FIG. 13), was determined by using QPCR and normalizing to the expression of the housekeeping gene RPL19.
# dorsal prostate = experiment: Histology of mouse dorsal prostate after 5 weeks of treatment; assay type: in vivo; details: FVB male mice, THP or BiC alone, or combination
# prostate [3] = experiment: Prostate wet weight in FVB male mice after 5 weeks of treatment; assay type: in vivo
# native androgen receptor = target: T3, native androgen receptor (Homo sapiens, UniProt P10275); experiment: PSA-luciferase reporter with CMV-renilla control in LAPC4 cells (THP); assay type: cell-based; details: LAPC4, DHT and increasing amounts of compound
# T3 construct: that each express endogenous AR; endogenous in cells; host or cells: LAPC4
# T3 sequence (P10275 1-920): T1 sequence (P10275 1-920)
# Source text: LAPC4 cells, a prostate cancer cell line that expresses native androgen receptor, were transfected with a PSA-luciferase reporter, and a CMV-renilla luciferase control.
# [4] = target: T4, AR with a mutation (T877A) (Homo sapiens, UniProt P10275, T878A); experiment: PSA-luciferase reporter transcription assay in LNCaP cells; assay type: cell-based; details: 3 nM DHT
# T4 construct: that each express endogenous AR; endogenous in cells; host or cells: LNCaP
# T4 sequence (P10275 1-920 T878A): T1 sequence (P10275 1-920) with T878A
# Method: Cells were transfected with two reporter plasmids, a PSA-luciferase construct (androgen responsive), and an SV40-renilla luciferase construct as an internal control. The following day, the cells were split and drugs added in the presence of 3 nM DHT. Luciferase production was measured the following day (Dual luciferase assay kit, Promega).
# Synergism can be defined as a combination index of less than one, using the non-exclusive assumption described by Chou et al. (Chou, T. C. and P. Talalay, Quantitative analysis of dose-effect relationships: the combined effects of multiple drugs or enzyme inhibitors. Adv Enzyme Regul, 1984. 22: p. 27-55).
compound,measurement,setting,value
"CC(O)(CS(=O)(=O)c1ccc(F)cc1)C(=O)Nc1ccc(C#N)c(C(F)(F)F)c1 (stereo not shown) [BiC, bicalutamide]",Reduction of prostate weight,prostate [1],35%
O=c1ccc2cc(O[C@@H]3O[C@H](CO)[C@@H](O)[C@H](O)[C@H]3O)c(O)cc2o1 [Esculin],Anti-androgen activity in screen,human androgen receptor,previously unrecognized anti-androgen activity
"CC(C)(O)C(=O)Nc1ccc([N+](=O)[O-])c(C(F)(F)F)c1 [OH—F, hydroxy-flutamide, reference compound]",Mode of antagonism on DHT titration,AR,DHT overcame the inhibitory effect; also recorded: consistent with a competitive antagonist
same,Anti-androgen activity in screen,human androgen receptor,top hits
"Cc1cc(/C=C/c2ccc3cc(N(C)C)ccc3[n+]2C)c(C)n1-c1ccccc1 [PP, 6-Dimethylamino-2-[2-(2,5-dimethyl-1-phenyl-1H-pyrrol-3-yl)-vinyl]-1-methyl-quinolinium, pamoate salt, reference compound]",Non-specific growth inhibition,HEK293 cells,Neither compound exhibited non-specific growth inhibition
COc1cc2ccc(=O)oc2cc1O [Scopoletin],Anti-androgen activity in screen,human androgen receptor,previously unrecognized anti-androgen activity
"Cc1cc(/C=C/C2CCc3cc(N(C)C)ccc3N2C)c(C)n1-c1ccccc1 (stereo not shown) [THP, {2-[2-(2,5-Dimethyl-1-phenyl-1H-pyrrol-3-yl)-vinyl]-1-methyl-1,2,3,4-tetrahydro-quinolin-6-yl}-dimethyl-amine]",Expression of androgen-regulated genes in the prostate (QPCR),[2]; 2 mg/kg THP,modest effects
same,Expression of androgen-regulated genes in the prostate (QPCR),[2]; 20 mg/kg THP,significantly decreased the transcription of many androgen regulated genes
same,Atrophy of the dorsal prostate by histological examination,dorsal prostate,modest atrophy
same,Appearance of the prostate,"prostate [3]; 20 mg/kg THP, 5 weeks",abnormal milky appearance of the prostate
same,Change in prostate wet weight,"prostate [3]; 5 weeks daily M-F, 1 mg/kg PP, 100 mg/kg BiC, 20 mg/kg THP, or 2 mg/kg THP + 100 mg/kg BiC",did not reduce overall wet weight
same,Inhibition of androgen receptor-mediated transcription (normalized luciferase activity),native androgen receptor,strong inhibition of androgen receptor-mediated transcription
Harman,IC50,[4],380 nM
